Data on one compound can be found in patent publication US20190292577A1, “COMPOSITIONS AND METHOD FOR THE TREATMENT OF ACNE” (ProdermIQ, Inc., priority 2018, published 2019).

The test system of test [1] is P. acnes. In words: Skin microbiome profiling, benzoyl peroxide versus no benzoyl peroxide. To be noted: benzoyl peroxide applied versus no benzoyl peroxide, FIG. 3. In kind it is in vivo, Propionibacterium acnes. The source says: (§1) Described herein are findings of a study of individuals comprising preadolescent females with acne, and changes in the microbiomes of the individuals with the use of benzoyl peroxide wash. Flora was taken from different areas of the faces of the individuals and studied for sensitivity to benzoyl peroxide. Inclusion criteria of the study for which results are provided herein include: • 1. Minimum of 6 acne lesions present. • 2. No prior use of prescription acne product. • 3. No prior use of over-the-counter benzoyl peroxide anti-acne agent. • 4. Ages: 7-12 • 5. Sex: Female Exclusion criteria of the study for which results are provided herein include: • 1. Significant active skin conditions on the face other than acne vulgaris (may include atopic dermatitis, psoriasis, or others). • 2. Use of oral or parenteral antibiotics within 3 months prior to the study. Sites from which samples were taken along with abbreviations for each include: • RA or RAL: Retroauricular Behind Ear • CH or CHN: Chin • CK or CKN: Cheek • FH or FHN: Forehead • AN or ANN: Ala Nasal [Outside of Nose] • CO or CON: Comedone In some embodiments, the skin microbiome of an individual subject is evaluated. Individual microbiomes vary greatly across subjects and regions of the skin. […] Samples were taken from locations on the heads of the individuals including behind the ear, chin, cheek, forehead, and outside the nose. […]

Test [2] deals with C2 P. acnes strain. In words: P. acnes strain profiling before and after benzoyl peroxide treatment. Format: in vivo, Propionibacterium acnes. To be noted: after benzoyl peroxide treatment, FIG. 39. How it is done: A group of subjects with P. acnes populations were treated with benzoyl peroxide and divided into 3 cohorts based on the effectiveness of the treatment. Subjects in the “Decrease Cohort” experienced a decrease in P. acnes populations, subjects in the “Increase Cohort” experienced an increase in P. acnes populations, and the “Flat Cohort” experienced non-measureable variance in P. acnes populations. […] Shown is the mean proportion of P. acnes across “Increase”, “Decrease”, and “Flat” cohort. […] The Al P. acnes across is differentiated between “Increase” and “Decrease” cohort. […] The K4 & C3 P. acnes is differentiated between “Increase” and “Decrease” cohort. […] The F4 & D1 P. acnes is differentiated between “Increase” and “Decrease” cohort. […] […] The K4 and A2 P. acnes strains are more prevalent in “Decrease” cohort while the K1 strain is more prevalent in “Increase” cohort.

For test [3], the system named is S. mitis. In words: Skin microbiome profiling, benzoyl peroxide versus no benzoyl peroxide. Format: in vivo. The conditions noted are these: benzoyl peroxide applied versus no benzoyl peroxide, FIG. 3.
Description: as §1

The subject of test [4] is skin microbiome. The test is described as follows: Site specific and overall effect of benzoyl peroxide on the skin microbiome. Format: in vivo, human.
Description: as §1

Consider `O=C(OOC(=O)c1ccccc1)c1ccccc1` [benzoyl peroxide], for which the “P. acnes levels within the microbiome” value in test [1] was “decreased”. Besides, in test [2], the “Prevalence of the C2 P. acnes strain after treatment” value is listed as “becomes more prevalent”. For the same compound, in test [3], the “S. mitis relative proportion in the microbiome” value is “increased”. In addition, in test [4] (among all sites tested, from the site specific prediction models of Table 2), the “Skin site impacted the most by benzoyl peroxide” value was “cheek gets impacted the most”. For the same compound, the “Impact on overall microbiome diversity” value in test [4] (benzoyl peroxide treatment) is “does not impact the overall microbiome diversity”.
